Results: patent US12014835B2, “Methods for evaluating therapeutic benefit of combination therapies” (Vanderbilt University, priority 2020, dated 2024)

Columns and labels:
Format in all cases: cell-based
A2058 = experiment: MuSyC analysis of PLX4720 in combination with NOX5 inhibitor DPI; conditions: in combination with PLX4720, A2058 cell line
Description: FIG. 4E depicts pairwise comparison between SC01 and SC10 of DEGs (FDR<0.001) identified using DESeq2 (Love, M. I. et al., Genome Biol. (2014) Vol. 15, p. 550). The 200 identified DEGs (ANOVA between three subclones) are in black. The dotted red lines denote ±4-fold change. FIG. 4F depicts the dose-response surface for PLX4270 plus DPI (a NOX5 inhibitor) in the A2058 cell line, using the same format as in FIGS. 2B and 2C.
FIGS. 4G, 4H, and 4I depict additional MuSyC analysis of the effect of the combination therapy with PLX4270 and DPI. FIG. 4G depicts a DSD for NOX5i (DPI) plus BRAFi (PLX4720). FIG. 4H depicts the correlation (Pearson r) of NOX5 expression with observed synergistic efficacy (βobs). FIG. 4I depicts the correlation (Pearson r) of NOX5 expression with synergistic potency, where α2 is DPI's effect on PLX4720 potency. Error bars represent parameter uncertainty calculated in MCMC fitting.
To study NOX5's contribution to the potency or efficacy of BRAFi, PLX4720 was tested in combination with a NOX5 inhibitor, DPI, in a panel of 7 melanoma cell lines selected based on differential NOX5 expression. […] See also, Meyer et al. in Cell Systems (2010) vol 8, pages 97-108, which is hereby incorporated by reference for all purposes.

PC9 cells = experiment: MuSyC drug combination screen with osimertinib, DIP rate, high-throughput in vitro assay; conditions: for synergistic efficacy (in words): drug-synergy diagram; for observed synergistic efficacy (βobs): at the maximum tested dose range
Description: FIG. 2A illustrates a high-throughput pipeline for generating dose-response surfaces. Initial drug matrix is prepared on a 384-well plate and transferred to cells seeded at subconfluent densities. Cells are engineered to express a fluorescently tagged histone (H2B-RFP), allowing for cell counts using automated segmentation software. Each condition is imaged every 6-8 h, resulting in growth curves. The growth curves are fit to determine the drug-induced proliferation (DIP) rate (slope of dotted line, vide infra) to quantify drug effect. This matrix of DIP rates is fit to our equation to extract synergy parameters.
MuSyC was applied to evaluate the synergistic potency and efficacy of a 64-drug panel (see Table 1 for drugs, drug classes, nominal targets, and tested concentration ranges) in combination with osimertinib, a mutant EGFR-tyrosine kinase inhibitor recently approved for first-line treatment of EGFR-mutant NSCLC. The selected drugs span a diverse array of cellular targets that can be broadly grouped into four categories: kinases, receptors and channels, epigenetic regulators, and mitotic checkpoints, each with several sub-categories. The combinations were tested in PC9 cells, a canonical model of EGFR-mutant NSCLC using a high-throughput, in vitro, drug-screening assay (FIG. 2A).
Applying this algorithm, synergy parameters (α1, α2, and βobs) were extracted from fitted surfaces for all osimertinib combinations (βobs is the observed synergistic efficacy at the maximum tested dose range).

WM115_SKIN = experiment: BRAFi sensitivity, DIP rate
Description: (§1) FIGS. 4A, 4B, and 4C depict data used to identify and characterize the top 200 differentially expressed genes (DEGs) between subclones of a BRAF-mutant melanoma cell line (SKMEL5) with differential sensitivity to BRAFi. FIG. 4A depicts growth curves of differentially sensitive, single-cell-derived subclones from SKMEL5 treated with 8 μM PLX4720. Gray curves represent colony growth according to the clonal fractional proliferation assay (Tyson, D. R. et al., Nature Methods (2012) Vol. 9, pp. 923-928). The average population response is indicated in the black curve. SC01, SC07, and SC10 were subsequently used to identify 200 DEGs. FIG. 4B depicts the top gene set enrichment terms for the identified 200 DEGs. FIG. 4C depicts a distribution of the correlation between the identified 200 DEGs' expression and BRAFi insensitivity. Drug sensitivity was quantified as DIP rate measured in 8 μM PLX4720. The threshold of p value <0.05 is annotated in pink.
(§2) Specifically, gene expression was quantified using RNA sequencing (RNA-seq) and the top 200 differentially expressed genes (DEGs) (FDR<0.001) were identified. […] The correlation was computed of the 200 DEGs' expression to BRAFi sensitivity across a 10-cell-line panel using expression data from Subramanian, A. et al. (2017). in Cell vol. 171, 1437-1452.e17.

WM983B_SKIN = experiment: BRAFi sensitivity, DIP rate
Description: as §1, §2

SKMEL5_SKIN = experiment: BRAFi sensitivity, DIP rate
Description: as §1, §2

WM2664_SKIN = experiment: BRAFi sensitivity, DIP rate
Description: as §1, §2

WM88_SKIN = experiment: BRAFi sensitivity, DIP rate
Description: as §1, §2

A375_SKIN = experiment: BRAFi sensitivity, DIP rate
Description: as §1, §2

A2058_SKIN = experiment: BRAFi sensitivity, DIP rate
Description: as §1, §2

SKMEL28_SKIN = experiment: BRAFi sensitivity, DIP rate
Description: as §1, §2

WM793_SKIN = experiment: BRAFi sensitivity, DIP rate
Description: as §1, §2

WM1799_SKIN = experiment: BRAFi sensitivity, DIP rate
Description: as §1, §2

[1] = in combination with osimertinib, PC9 cells

For `c1ccc2c(c1)[I+]c1ccccc1-2` [DPI], the “observed synergistic efficacy (βobs)” value (A2058) was 1.42 ±0.05.
`COC(=O)Nc1nc2ccc(Oc3ccc(NC(=O)Nc4ccccc4)cc3)cc2[nH]1` [GW694590a] was tested, and the “synergistic efficacy (in words)” value (PC9 cells; [1]) was “synergistically efficacious”.
In the case of `CN(C)c1ccc(C(=O)NCCCCCCC(=O)NO)cc1` [M344], the “increase in efficacy over osimertinib alone” value (PC9 cells; [1]) is reported as 125%, the “synergistic potency log(α2): how osimertinib's potency is modulated by the drug” value (PC9 cells; [1]) is reported as −0.90±0.01 and the “observed synergistic efficacy (βobs)” value (PC9 cells; [1]) is reported as 1.25±0.03.
`CCCS(=O)(=O)Nc1ccc(F)c(C(=O)c2c[nH]c3ncc(Cl)cc23)c1F` [PLX4270] was tested, and the “DIP Rate at [8 uM] PLX4270” value (WM115_SKIN) was 0.013 h⁻¹, the “DIP Rate at [8 uM] PLX4270” value (WM983B_SKIN) was 0.021 h⁻¹ and the “DIP Rate at [8 uM] PLX4270” value (SKMEL5_SKIN) was 0.014 h⁻¹. The “DIP Rate at [8 uM] PLX4270” value (WM2664_SKIN) was 0.003 h⁻¹, the “DIP Rate at [8 uM] PLX4270” value (WM88_SKIN) was -0.020 h⁻¹ and the “DIP Rate at [8 uM] PLX4270” value (A375_SKIN) was 0.005 h⁻¹. The “DIP Rate at [8 uM] PLX4270” value (A2058_SKIN) was 0.030 h⁻¹, the “DIP Rate at [8 uM] PLX4270” value (SKMEL28_SKIN) was 0.010 h⁻¹ and the “DIP Rate at [8 uM] PLX4270” value (WM793_SKIN) was 0.015 h⁻¹. The “DIP Rate at [8 uM] PLX4270” value (WM1799_SKIN) was -0.002 h⁻¹.
In the case of `Cc1cc(Nc2ncc(Cl)c(Nc3ccccc3S(=O)(=O)C(C)C)n2)c(OC(C)C)cc1C1CCNCC1` [ceritinib], the EC50 (PC9 cells; Homo sapiens, PC-9, single agent, PC9 cells, DIP rate) is reported as 2.02 µM, the “synergistic potency log(α2): how osimertinib's potency is modulated by the drug” value (PC9 cells; [1]) is reported as 6.25±0.50 and the “observed synergistic efficacy (βobs)” value (PC9 cells; [1]) is reported as 0.28 ±0.003.
With `CCCCc1oc2ccc(NS(C)(=O)=O)cc2c1C(=O)c1ccc(OCCCN(CCCC)CCCC)cc1` [dronedarone] the “synergistic efficacy (in words)” value (PC9 cells; [1]) was “most antagonistic”.
`Nc1ccccc1NC(=O)c1ccc(CNC(=O)OCc2cccnc2)cc1` [entinostat] was tested, and the “observed synergistic efficacy (βobs)” value (PC9 cells; [1]) was 0.84±0.027.
In the case of `Cn1cc(CNCC2CCN(c3ncc(C(=O)NO)cn3)CC2)c2ccccc21` [quisinostat], the “total efficacy of the combination (in words)” value (PC9 cells; in combination with osimertinib, NSCLC screen) is reported as “greatest total efficacy”.
With `CC[C@]1(O)C[C@@H]2CN(CCc3c([nH]c4ccccc34)[C@@](C(=O)OC)(c3cc4c(cc3OC)N(C)[C@H]3[C@@](O)(C(N)=O)[C@H](O)[C@]5(CC)C=CCN6CC[C@]43[C@@H]65)C2)C1` [vindesine] the “synergistic efficacy (in words)” value (PC9 cells; [1]) was “upward shift along the axis of synergistic efficacy”.
